# Measured values reported in article PMC13408504, “Design, structure-based optimization and antiviral evaluation of potent inhibitors for the macrodomain Mac1 of SARS-CoV-2” (Nature Communications, 2026).
# Values joined by “and” are separate entries in the source; they are usually repeats but may differ in a detail not shown here. Equal values may be shown once.
# Legend:
# Mac1 of SARS-CoV-2 [1] = molecular target: T1, Mac1 of SARS-CoV-2 (Severe acute respiratory syndrome coronavirus 2, UniProt P0DTD1); assay: Fluorimetric microplate assay for Mac1 activity (α-NAD+ hydrolysis, post-reaction derivatisation); format: biochemical
# wildtype Mac1 [2] = molecular target: T2, wildtype Mac1 (Severe acute respiratory syndrome coronavirus 2, UniProt P0DTD1); format: binding
# Mac1 [3] = settings: cited from earlier work
# physchem = settings: pH 7.3
# pig liver esterase (PLE) = settings: pH 7.3
# [4] = pH 7.3
# in vitro = settings: human, pH 7.4
# Mac1 of SARS-CoV-2 [5] = molecular target: T1, Mac1 of SARS-CoV-2; assay: biochemical; settings: pIC50 (±SD) for Mac1 inhibition
# [6] = system: cellular NAD+ levels in CaLu-3 cells; assay: Quantification of cellular NAD+ (enzymatic cycling kit, normalised to protein); format: cell-based
# human MacroD2 = human MacroD2 (Homo sapiens, UniProt A1Z1Q3); format: biochemical
# human MacroD1 = human MacroD1 (Homo sapiens, UniProt Q9BQ69); format: biochemical
# [7] = molecular target: NADase from Neurospora crassa (Neurospora crassa, UniProt Q7S936); format: biochemical
# wildtype Mac1 [8] = molecular target: T2, wildtype Mac1; format: biochemical, SARS-CoV-2
# Mac1 [9] = settings: cited from earlier work; remark: listed apart in the source
# Chain of NADase from Neurospora crassa (Q7S936 20-243 limits assumed): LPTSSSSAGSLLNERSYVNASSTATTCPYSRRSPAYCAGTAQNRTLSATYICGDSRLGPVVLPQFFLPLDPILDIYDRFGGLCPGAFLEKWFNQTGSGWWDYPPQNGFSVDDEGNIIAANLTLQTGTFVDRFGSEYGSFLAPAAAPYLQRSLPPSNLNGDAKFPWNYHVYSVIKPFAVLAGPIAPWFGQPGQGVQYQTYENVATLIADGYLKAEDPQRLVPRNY
# Chain of human MacroD2 (A1Z1Q3 whole entry): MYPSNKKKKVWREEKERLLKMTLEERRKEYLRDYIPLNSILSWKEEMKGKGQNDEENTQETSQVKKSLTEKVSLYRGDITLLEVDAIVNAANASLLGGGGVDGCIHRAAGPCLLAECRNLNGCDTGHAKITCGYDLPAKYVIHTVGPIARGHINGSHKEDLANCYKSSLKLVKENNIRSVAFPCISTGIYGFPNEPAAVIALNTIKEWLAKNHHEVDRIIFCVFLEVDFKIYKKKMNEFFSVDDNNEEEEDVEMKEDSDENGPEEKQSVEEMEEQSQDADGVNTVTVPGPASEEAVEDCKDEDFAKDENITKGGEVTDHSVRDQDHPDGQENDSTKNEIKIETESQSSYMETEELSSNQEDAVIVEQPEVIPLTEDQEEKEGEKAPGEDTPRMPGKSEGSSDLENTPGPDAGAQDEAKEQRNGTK
# Chain of human MacroD1 (Q9BQ69 whole entry): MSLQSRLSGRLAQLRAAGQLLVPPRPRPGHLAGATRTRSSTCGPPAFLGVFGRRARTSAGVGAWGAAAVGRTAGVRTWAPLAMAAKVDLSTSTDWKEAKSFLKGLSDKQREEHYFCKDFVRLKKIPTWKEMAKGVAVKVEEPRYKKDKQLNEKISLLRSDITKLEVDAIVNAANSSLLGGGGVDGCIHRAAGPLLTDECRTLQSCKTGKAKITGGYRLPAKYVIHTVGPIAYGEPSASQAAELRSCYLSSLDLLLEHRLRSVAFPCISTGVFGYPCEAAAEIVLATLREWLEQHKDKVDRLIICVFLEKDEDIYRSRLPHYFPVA
smiles,measurement,setting,value
"Nc1ncnc2c1ncn2[C@@H]1O[C@H](COP(=O)(O)OP(=O)(O)S)[C@@H](O)[C@H]1O (stereo partly drawn) [compound 35, adenosine-5′-O-(2-thiodiphosphate)]",IC50,Mac1 of SARS-CoV-2 [1],3890 µM
"Nc1ncnc2c1ncn2[C@@H]1O[C@H](COP(=O)(O)CP(=O)(O)O)[C@@H](O)[C@H]1O [compound 34, α-β methylene-ADP]",Inhibition of Mac1 (in words),Mac1 of SARS-CoV-2 [1],none of these compounds inhibited Mac1
"COP(=O)(O)OP(=O)(O)OC[C@H]1O[C@@](C#N)(c2ccc3c(N)ncnn23)[C@H](O)[C@@H]1O [compound 4, β-methyl-GS-441524-DP]",time at which cellular uptake reached an equilibrium,"CaLu-3 cells; human, pH 7.4",15 min
"Nc1ncnc2c1ncn2[C@@H]1O[C@H](COP(=O)(O)OP(=O)(O)OC[C@H]2O[C@@H](O)C(O)[C@H]2O)C(O)[C@@H]1OP(=O)(O)O (stereo partly drawn) [compound 15, ADPR-2′-phosphate]",TΔS,wildtype Mac1 [2],-5.4 ± 1.2 kcal/mol
same,ΔH,wildtype Mac1 [2],-11.5 ± 0.2 kcal/mol
same,affinity for Mac1 compared with ADPR 1 (in words),Mac1 [3],slightly higher affinity than ADPR 1
"Nc1ncnc2c1ncn2[C@@H]1O[C@H](COP(=O)(O)OP(=O)(O)O[C@H]2O[C@H](CO)[C@@H](O)[C@H](O)[C@H]2O)[C@@H](O)[C@H]1O [compound 23, ADP-glucose]",Inhibition of Mac1 (in words),Mac1 of SARS-CoV-2 [1],no detectable inhibition
"CCCCCCCCCCCC(=O)Oc1ccc(COP(=O)(OC)OP(=O)(O)OC[C@H]2O[C@@](C#N)(c3ccc4c(N)ncnn34)[C@H](O)[C@@H]2O)cc1 (stereo partly drawn) [compound 5, C11-AB-β-methyl-GS-441524-DP]",half-life,physchem,61 h
same,hydrolysis with pig liver esterase (in words),pig liver esterase (PLE),successful
same,time at which incipient decomposition to GS-441524-MP 40 was discovered,[4],30 s
same,CC50,in vitro,> 50 µM
same,decrease of β-NAD+ 2 levels,CaLu-3 cells,62%
same,"GS-441524-MP 40 formed, share of the total of detectable 40 and deprotected compound","CaLu-3 cells; human, pH 7.4",24%
same,intracellular concentration,"CaLu-3 cells; human, pH 7.4",0.3 to 0.4 µM
"Nc1ncnc2c1nc(-c1ccsc1)n2C1OC(COP(=O)(O)OP(=O)(O)OCC2OC(O)C(O)C2O)C(O)C1O (stereo not drawn) [compound 12, 8-thiophen-3-yl-ADPR]",IC50,Mac1 of SARS-CoV-2 [5],251 µM
"Nc1ncnc2c1ccn2C1OC(COP(=O)(O)OP(=O)(O)OCC2OC(O)C(O)C2O)C(O)C1O (stereo not drawn) [compound 22, 7-Deazaadenosine DP ribose]",IC50,Mac1 of SARS-CoV-2 [1],14.5 µM
"O=c1[nH]cnc2c1ncn2C1OC(COP(=O)(O)OP(=O)(O)OCC2OC(O)C(O)C2O)C(O)C1O (stereo not drawn) [compound 10, inosine-5′-O-diphosphoribose]",Inhibition of Mac1 (in words),Mac1 of SARS-CoV-2 [1],did not inhibit Mac1
O=C(/C=C/c1cccnc1)NCCCCC1CCN(C(=O)c2ccccc2)CC1 [FK866],reduction of cellular NAD levels,[6],~ 90%
"Nc1ncnc2c1nc(Br)n2C1OC(COP(=O)(O)OP(=O)(O)OCC2OC(O)C(O)C2O)C(O)C1O (stereo not drawn) [compound 13, 8-Br-ADPR]",Inhibition of human MacroD2 (in words),human MacroD2,low micromolar range
same,Inhibition of human MacroD1 (in words),human MacroD1,low micromolar range
"NC(=O)c1ccc[n+]([C@@H]2O[C@H](COP(=O)([O-])OP(=O)(O)OC[C@H]3O[C@@H](n4cnc5c(N)ncnc54)[C@H](O)[C@@H]3O)[C@@H](O)[C@H]2O)c1 [compound 2, β-NAD^+]",hydrolysis by NADase (in words),[7],hydrolyzed
same,hydrolysis by Mac1 (in words),wildtype Mac1 [8],intact
"Nc1ncnc2c1ncn2[C@@H]1O[C@H](COP(=O)(O)O)[C@@H](O)[C@H]1O [compound 39, AMP]",Inhibition of Mac1 (in words),Mac1 of SARS-CoV-2 [1],showed no inhibition
"Nc1nc(F)nc2c1ncn2C1OC(COP(=O)(O)OP(=O)(O)OCC2OC(O)C(O)C2O)C(O)C1O (stereo not drawn) [compound 11, 2-F-ADPR]",IC50,Mac1 of SARS-CoV-2 [1],191 µM
"Nc1ncnc2c1ncn2[C@H]1C[C@H](O)[C@@H](COP(=O)(O)OP(=O)(O)OC[C@H]2OC(O)[C@H](O)[C@@H]2O)O1 (stereo partly drawn) [compound 16, 2′-deoxy-ADPR]",TΔS,wildtype Mac1 [2],-5.9 ± 0.2 kcal/mol
same,ΔH,wildtype Mac1 [2],-12.5 ± 0.2 kcal/mol
"N#C[C@@]1(c2ccc3c(N)ncnn23)O[C@H](CO)[C@@H](O)[C@H]1O [compound 3, GS-441524]",affinity for Mac1 compared with ADPR 1 (in words),Mac1 [3],affinity similar to ADPR 1
"Nc1ncnc2c1ncn2[C@@H]1O[C@H](COP(=O)(O)OP(=O)(O)O)[C@@H](O)[C@H]1O [compound 18, ADP]",thermal stabilisation of Mac1 (in words),Mac1 [9],not thermally stabilised
same,pIC50 (±SD) for Mac1 inhibition,Mac1 of SARS-CoV-2 [1],2.44 and 2.3 ± 0.1
"N#C[C@@]1(c2ccc3c(N)ncnn23)O[C@H](COP(=O)(O)O)[C@@H](O)[C@H]1O [compound 40, GS-441524-monophosphate]",IC50,Mac1 of SARS-CoV-2 [1],43.7 µM
"Nc1ncnc2c1cc(Br)n2C1OC(COP(=O)(O)OP(=O)(O)OCC2OC(O)C(O)C2O)C(O)C1O (stereo not drawn) [compound 14, 8-Br-7-deaza-ADPR]",IC50,Mac1 of SARS-CoV-2 [1],38 µM
"Nc1ncnc2c1ncn2[C@@H]1O[C@H](COP(=O)(O)OP(=O)(O)OC2CCCC2)[C@@H](O)[C@H]1O [compound 27, β-cyclopentyl-ADP]",pIC50 (±SD) for Mac1 inhibition,Mac1 of SARS-CoV-2 [1],2.79
"Nc1ncnc2c1ncn2[C@@H]1O[C@H](CO)[C@@H](O)[C@H]1O [compound 38, adenosine]",Inhibition of Mac1 (in words),Mac1 of SARS-CoV-2 [1],showed no inhibition
